Data taken from EP3958860B1, “COMPOUNDS EXHIBITING ANTI-TUBERCULOSIS ACTIVITY” (priority 2019, dated 2021).
Values after ≈ are worked out from the molar mass of the structure shown. Where two headings read alike, the source gives them in different places.

Legend:
[1] = system: Mycobacterium tuberculosis H37Rv; experiment: MIC determination by MABA (Microplate Alamar Blue Assay); format: cell-based; details: for MIC: Mycobacterium tuberculosis, H37RV
Experimental: Following this, to determine the actual minimum inhibitory concentration in the second phase, both of the compounds were retested to the lowest concentration of Mycobacterium tuberculosis H37Rv with the technique of MABA (Microplate Alamar Blue Assay) and MIC value for the 1st compound was determined <0.03 µg/ml while this value was determined <0.05 µg/ml for the second compound. The result of Rifampicin subjected to the assay under the same conditions was determined as 0.25 µg/ml.

[2] = In vivo animal toxicity tests (maximum tolerable dose)
Mycobacterium avium = experiment: MIC on Mycobacterium avium with BACTEC; format: cell-based; details: for MIC: Mycobacterium avium, BACTEC
[3] = format: physicochemical
Experimental: To ensure that Compound 2 is dissolved in water, in the assays carried out with solubility enhancing cyclodextrin molecules, different cyclodextrins [hydroxypropyl beta-cyclodextrin (HP-β-CD), sulfobutyl ether beta-cyclodextrin (SBE-β-CD)], different methods [kneading, evaporation, lyophilization], different solvents (dimethyl sulfoxide, methanol, ethanol) were studied at the molar ratio of 1: 1 compound: cyclodextrin.

[4] = format: physicochemical; remark: listed apart in the source
Experimental: In the assays carried out with the solubility enhancing Polysorbate 80 (Tween 80) in order to ensure water solubility of Compound 2, firstly solubility of the compound was determined in an aqueous solution prepared with a mass ratio of 1:6 (compound: Tween 80) and then the same mass ratio was studied with different solvents (ethanol, methanol) and different drying methods (evaporation, evaporation+lyophilization). In light of the results of solubility obtained and presented below Table 2, it has determined that the solution of the compound that was prepared with the Tween 80 in methanol medium had the highest solubility rate after evaporation.
Details of the method where high solubility was determined with Polysorbate 80 (Tween 80) are presented below: After the substances at the mass ratio of 1:6 (compound: Tween 80) were dissolved in 7 ml methanol, they were evaporated in a rotating evaporator at 175 RPM, at a temperature of 40°C and a vacuum of […]. The thin film obtained was firstly blended with vortex adding 3 ml water, and then was left to rest for 15 minutes in an ultrasonic bath. The mixture obtained was filtered out with a plastic filter having a pore diameter of 0.2 µm and afterward solubility ratio of the mixture was determined with HPLC.

[5] = system: Mycobacterium tuberculosis H37Rv (ATCC27294); format: cell-based
[6] = first value of the cell (outside parentheses), MABA, read-out: MIC H37Rv
[7] = first value of the cell (outside parentheses), MABA
[8] = value printed in parentheses after the bound <12.5, read-out: MIC H37Rv (µg/ml), value in parentheses
[9] = read-out: MIC H37Rv (µg/ml), value in parentheses

Row | Structure (SMILES) | MIC [1, 6] | MIC (Mycobacterium avium) | MIC [1, 8] | other results
1 | CC(=NNC(N)=S)c1ccc2c(c1)CCC2 [Compound 1, 2-[1-(2,3-dihydro-1H-inden-5-yl)ethylidene]hydrazinecarbothioamide] | < 0.03 µg/mL |  |  | MIC H37Rv [1, 7]: <0.03 µg/mL; maximum tolerable dose [2]: 1000 mg/kg
2 | COc1ccc(O)c(-c2csc(NN=C(C)c3ccc4c(c3)CCC4)n2)c1 [Compound 2, 2-[2-(2-(1-(2,3-dihydro-1H-inden-5-yl)ethylidene)hydrazinyl)thiazole-4-yl]-4-methoxy phenol] | < 0.05 µg/mL | 0.39 µg/mL (≈ 1.03 µM) |  | MIC H37Rv [1, 7]: <0.05 µg/mL; activity on Mycobacterium avium (Mycobacterium avium): exhibited activity; increase in solubility [3]: any significant increase in solubility was not observed; dissolved in water at the ratio of ([3]; HP-β-CD, molar ratio 1:1, evaporation method within ethanol): 0.59 µg/mL; Solubility ratio in the aqueous solution [4]: Solubility ratio in the aqueous solution prepared with the mass ratio of 1:6 (compound: Tween 80) 42,44 µg/ml; The ratio of water solubility [4]: 58,80 µg/ml; The ratio of water solubility ([4]; 15 min): 70,05 µg/ml
3 | CC(=NNc1nc(-c2ccc(Cl)cc2)cs1)c1ccc2c(c1)CCC2 [Compound 3, 4-(4-Chlorophenyl)-2-[2-(1-(2,3-dihydro-1H-inden-5yl)ethylidene)hydrazinyl] thiazole] | < 12.5 µg/mL | 0.78 µg/mL (≈ 2.12 µM) | 0.39 µg/mL (≈ 1.06 µM) | 
4 | CC(=NNc1nc(-c2ccccc2O)cs1)c1ccc2c(c1)CCC2 [Compound 4, 2-[2-(2-(1-(2,3-Dihydro-1H-inden-5-yl)ethylidene)hydrazinyl)thiazol-4-yl]phenol] | < 12.5 µg/mL | 0.78 µg/mL (≈ 2.23 µM) | 0.2 µg/mL (≈ 0.572 µM) | 
5 | CC(=NNc1nc(-c2cc(Cl)ccc2O)cs1)c1ccc2c(c1)CCC2 [Compound 5, 4-Chloro-2-[2-(2-(1-(2,3-dihydro-1H-inden-5-yl)ethylidene)hydrazinyl)thiazol-4-yl]phenol] | < 12.5 µg/mL |  |  | 
6 | CC(=NNc1nc(-c2ccc(Br)cc2)cs1)c1ccc2c(c1)CCC2 [Compound 6, 4-(4-Bromophenyl)-2-[2-(1-(2,3-dihydro-1H-inden-5-yl)ethylidene)hydrazinyl] thiazole] | < 12.5 µg/mL | 1.56 µg/mL (≈ 3.78 µM) | 0.39 µg/mL (≈ 0.946 µM) | 
7 | C/C(=N\Nc1nc(-c2ccc(C)cc2)cs1)c1ccc2c(c1)CCC2 [Compound 7] |  | 0.2 µg/mL (≈ 0.576 µM) |  | Primary screening % inhibition [5]: 94%; MIC ([1]; read-out: MIC H37Rv (µg/ml)): < 12.5 µg/mL; MIC [1, 9]: 0.2 µg/mL (≈ 0.576 µM)
8 | COc1ccc(-c2csc(NN=C(C)c3ccc4c(c3)CCC4)n2)c(O)c1 [Compound 8, 2-[2-(2-(1-(2,3-Dihydro-1H-inden-5-yl)ethylidene)hydrazinyl)thiazol-4-yl]-5-methoxyphenol] | < 12.5 µg/mL |  |  | 
9 | CC(=NNc1nc(-c2ccc(C)cc2O)cs1)c1ccc2c(c1)CCC2 [Compound 9, 2-[2-(2-(1-(2,3-Dihydro-1H-inden-5-yl)ethylidene)hydrazinyl)thiazol-4-yl]-5-methylphenol] | < 12.5 µg/mL | 0.1 µg/mL (≈ 0.275 µM) | 0.05 µg/mL (≈ 0.138 µM) | 
10 | C/C(=N\Nc1nc(-c2ccc([N+](=O)[O-])cc2)cs1)c1ccc2c(c1)CCC2 [Compound 10] |  | 3.13 µg/mL (≈ 8.27 µM) |  | Primary screening % inhibition [5]: 93%; MIC ([1]; read-out: MIC H37Rv (µg/ml)): < 12.5 µg/mL; MIC [1, 9]: 1.56 µg/mL (≈ 4.12 µM)
11 | CC(=NNc1nc(-c2ccccc2)cs1)c1ccc2c(c1)CCC2 [Compound 11, 2-[2-(1-(2,3-Dihydro-1H-inden-5-yl)ethylidene)hydrazinyl]-4-phenylthiazole] |  | 12.5 µg/mL (≈ 37.5 µM) |  | MIC ([1]; read-out: MIC H37Rv (µg/ml)): < 12.5 µg/mL; MIC [1, 9]: 3.13 µg/mL (≈ 9.39 µM)
12 | CO[C@H]1/C=C/O[C@@]2(C)Oc3c(C)c(O)c4c(O)c(c(/C=N/N5CCN(C)CC5)c(O)c4c3C2=O)NC(=O)/C(C)=C\C=C\[C@H](C)[C@H](O)[C@@H](C)[C@@H](O)[C@@H](C)[C@H](OC(C)=O)[C@@H]1C [Rifampicin, reference compound] | 0.25 µg/mL (≈ 0.304 µM) |  |  | 
